Where “and” joins values, the source holds several entries; their conditions need not be identical. Equal entries are not always repeated. Toxic doses and inconclusive results are not listed.
System: L1210 leukemia ip in BDF1 mice, survival T/C
Assay: NCI In Vivo Anticancer Drug Screen. Data for tumor model L1210 Leukemia (intraperitoneal) in B6D2F1 (BDF1) mice
Settings: higher = longer survival
Method in brief: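 Each compound was tested against a transplantable tumor grown in mice. The endpoint was survival, with treated animals benchmarked against vehicle controls as a simple ratio.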

[1] = endpoint: mean survival time, dose: 100.0 mg/kg/injection, schedule: Q01DX001 (ip), vehicle: other
[2] = endpoint: mean survival time, dose: 100.0 mg/kg/injection, schedule: Q01DX001 (ip), vehicle: saline
[3] = endpoint: mean survival time, dose: 200.0 mg/kg/injection, schedule: Q01DX001 (ip), vehicle: saline
[4] = endpoint: mean survival time, dose: 400.0 mg/kg/injection, schedule: Q01DX001 (ip), vehicle: saline

SMILES: CCCCCCCCCCCCCCCC(=O)OCC1OC(n2ccc(N)nc2=O)C(O)C1O (configuration not stated)
- T/C (endpoint: mean survival time, dose: 5.0 mg/kg/injection, schedule: Q01DX005 (ip), vehicle: other): 150 % of control
- T/C (endpoint: mean survival time, dose: 6.0 mg/kg/injection, schedule: Q01DX009 (ip), vehicle: saline with Tween-80): 200 % of control
- T/C (endpoint: mean survival time, dose: 8.8 mg/kg/injection, schedule: Q01DX009 (ip), vehicle: saline with Tween-80): 210 % of control
- T/C (endpoint: mean survival time, dose: 10.0 mg/kg/injection, schedule: Q01DX005 (ip), vehicle: other): 182 % of control and 183 % of control and 198 % of control
- T/C (endpoint: mean survival time, dose: 10.0 mg/kg/injection, schedule: Q06HX008 (ip), vehicle: other): 236 % of control
- T/C (endpoint: mean survival time, dose: 12.0 mg/kg/injection, schedule: Q01DX009 (ip), vehicle: saline with Tween-80): 242 % of control
- T/C (endpoint: mean survival time, dose: 12.5 mg/kg/injection, schedule: Q01DX001 (ip), vehicle: saline): 153 % of control
- T/C (endpoint: mean survival time, dose: 13.0 mg/kg/injection, schedule: Q01DX009 (ip), vehicle: saline with Tween-80): 244 % of control (2×) and 260 % of control
- T/C (endpoint: mean survival time, dose: 15.0 mg/kg/injection, schedule: Q01DX005 (ip), vehicle: other): 210 % of control and 231 % of control and 237 % of control
- T/C (endpoint: mean survival time, dose: 15.0 mg/kg/injection, schedule: Q01DX008 (ip), vehicle: other): 226 % of control
- T/C (endpoint: mean survival time, dose: 15.0 mg/kg/injection, schedule: Q12HX008 (ip), vehicle: other): 292 % of control
- T/C (endpoint: mean survival time, dose: 16.0 mg/kg/injection, schedule: Q06HX008 (ip), vehicle: other): 267 % of control
- T/C (endpoint: mean survival time, dose: 20.0 mg/kg/injection, schedule: Q01DX005 (ip), vehicle: other): 220 % of control and 224 % of control and 245 % of control
- T/C (endpoint: mean survival time, dose: 20.0 mg/kg/injection, schedule: Q01DX008 (ip), vehicle: other): 264 % of control
- T/C (endpoint: mean survival time, dose: 24.0 mg/kg/injection, schedule: Q01DX009 (oral), vehicle: saline with Tween-80): 119 % of control
- T/C (endpoint: mean survival time, dose: 25.0 mg/kg/injection, schedule: Q01DX001 (ip), vehicle: other): 153 % of control and 154 % of control and 174 % of control
- T/C (endpoint: mean survival time, dose: 25.0 mg/kg/injection, schedule: Q01DX001 (ip), vehicle: saline with Tween-80): 196 % of control
- T/C (endpoint: mean survival time, dose: 25.0 mg/kg/injection, schedule: Q01DX001 (ip), vehicle: saline): 165 % of control
- T/C (endpoint: mean survival time, dose: 25.0 mg/kg/injection, schedule: Q01DX005 (ip), vehicle: other): 243 % of control and 258 % of control and 273 % of control
- T/C (endpoint: mean survival time, dose: 25.0 mg/kg/injection, schedule: Q01DX008 (ip), vehicle: other): 267 % of control
- T/C (endpoint: mean survival time, dose: 25.0 mg/kg/injection, schedule: Q02DX008 (ip), vehicle: other): 270 % of control
- T/C (endpoint: mean survival time, dose: 25.0 mg/kg/injection, schedule: Q04DX008 (ip), vehicle: other): 245 % of control and 252 % of control
- T/C (endpoint: mean survival time, dose: 25.0 mg/kg/injection, schedule: Q06DX008 (ip), vehicle: other): 165 % of control and 187 % of control
- T/C (endpoint: mean survival time, dose: 25.0 mg/kg/injection, schedule: Q08DX008 (ip), vehicle: other): 178 % of control
- T/C (endpoint: mean survival time, dose: 27.0 mg/kg/injection, schedule: Q02DX005 (ip), vehicle: saline with Tween-80): 255 % of control
- T/C (endpoint: mean survival time, dose: 30.0 mg/kg/injection, schedule: Q01DX009 (ip), vehicle: saline with Tween-80): 270 % of control
- T/C (endpoint: mean survival time, dose: 30.0 mg/kg/injection, schedule: Q03HX008 (ip), vehicle: other): 192 % of control
- T/C (endpoint: mean survival time, dose: 32.0 mg/kg/injection, schedule: Q04DX003 (ip), vehicle: saline with Tween-80): 198 % of control
- T/C (endpoint: mean survival time, dose: 35.0 mg/kg/injection, schedule: Q01DX005 (ip), vehicle: other): 254 % of control and 255 % of control
- T/C (endpoint: mean survival time, dose: 36.0 mg/kg/injection, schedule: Q01DX009 (oral), vehicle: saline with Tween-80): 113 % of control
- T/C (endpoint: mean survival time, dose: 40.0 mg/kg/injection, schedule: Q03HX008 (ip), vehicle: other): 151 % of control and 167 % of control
- T/C (endpoint: mean survival time, dose: 49.0 mg/kg/injection, schedule: Q04DX003 (ip), vehicle: saline with Tween-80): 271 % of control
- T/C (endpoint: mean survival time, dose: 50.0 mg/kg/injection, schedule: Q01DX001 (ip), vehicle: other): 173 % of control and 187 % of control and 211 % of control
- T/C (endpoint: mean survival time, dose: 50.0 mg/kg/injection, schedule: Q01DX001 (ip), vehicle: saline with Tween-80): 165 % of control
- T/C (endpoint: mean survival time, dose: 50.0 mg/kg/injection, schedule: Q01DX001 (ip), vehicle: saline): 186 % of control and 207 % of control
- T/C (endpoint: mean survival time, dose: 50.0 mg/kg/injection, schedule: Q01DX009 (ip), vehicle: saline): 115 % of control
- T/C (endpoint: mean survival time, dose: 50.0 mg/kg/injection, schedule: Q04DX008 (ip), vehicle: other): 216 % of control
- T/C (endpoint: mean survival time, dose: 50.0 mg/kg/injection, schedule: Q06DX008 (ip), vehicle: other): 245 % of control and 283 % of control
- T/C (endpoint: mean survival time, dose: 50.0 mg/kg/injection, schedule: Q08DX008 (ip), vehicle: other): 283 % of control and 293 % of control
- T/C (endpoint: mean survival time, dose: 60.0 mg/kg/injection, schedule: Q02DX005 (ip), vehicle: saline with Tween-80): 182 % of control
- T/C (endpoint: mean survival time, dose: 64.0 mg/kg/injection, schedule: Q04DX003 (oral), vehicle: saline with Tween-80): 101 % of control
- T/C (endpoint: mean survival time, dose: 67.0 mg/kg/injection, schedule: Q01DX001 (ip), vehicle: saline with Tween-80): 162 % of control and 220 % of control
- T/C (endpoint: mean survival time, dose: 70.0 mg/kg/injection, schedule: Q01DX001 (ip), vehicle: saline with Tween-80): 239 % of control
- T/C (endpoint: mean survival time, dose: 75.0 mg/kg/injection, schedule: Q02DX004 (ip), vehicle: other): 244 % of control
- T/C (endpoint: mean survival time, dose: 90.0 mg/kg/injection, schedule: Q02DX004 (ip), vehicle: other): 283 % of control
- T/C (endpoint: mean survival time, dose: 98.0 mg/kg/injection, schedule: Q04DX003 (oral), vehicle: saline with Tween-80): 106 % of control
- T/C [1]: 220 % of control and 253 % of control and 281 % of control
- T/C [2]: 276 % of control and 293 % of control
- T/C (endpoint: mean survival time, dose: 100.0 mg/kg/injection, schedule: Q01DX009 (ip), vehicle: saline): 96 % of control
- T/C (endpoint: mean survival time, dose: 100.0 mg/kg/injection, schedule: Q02DX008 (ip), vehicle: other): 194 % of control
- T/C (endpoint: mean survival time, dose: 100.0 mg/kg/injection, schedule: Q04DX008 (ip), vehicle: other): 286 % of control
- T/C (endpoint: mean survival time, dose: 120.0 mg/kg/injection, schedule: Q03DX004 (ip), vehicle: other): 235 % of control
- T/C (endpoint: mean survival time, dose: 140.0 mg/kg/injection, schedule: Q01DX001 (oral), vehicle: saline with Tween-80): 98 % of control
- T/C (endpoint: mean survival time, dose: 146.0 mg/kg/injection, schedule: Q04DX003 (oral), vehicle: saline with Tween-80): 106 % of control
- T/C (endpoint: mean survival time, dose: 150.0 mg/kg/injection, schedule: Q04DX008 (ip), vehicle: other): 233 % of control and 235 % of control
- T/C (endpoint: mean survival time, dose: 150.0 mg/kg/injection, schedule: Q08DX008 (ip), vehicle: other): 291 % of control
- T/C [3]: 283 % of control
- T/C (endpoint: mean survival time, dose: 214.0 mg/kg/injection, schedule: Q01DX001 (oral), vehicle: saline with Tween-80): 97 % of control
- T/C (endpoint: mean survival time, dose: 220.0 mg/kg/injection, schedule: Q04DX003 (oral), vehicle: saline with Tween-80): 104 % of control
- T/C (endpoint: mean survival time, dose: 225.0 mg/kg/injection, schedule: Q01DX001 (ip), vehicle: saline with Tween-80): 249 % of control
- T/C (endpoint: mean survival time, dose: 250.0 mg/kg/injection, schedule: Q01DX001 (ip), vehicle: other): 175 % of control and 210 % of control and 234 % of control
- T/C (endpoint: mean survival time, dose: 320.0 mg/kg/injection, schedule: Q01DX001 (oral), vehicle: saline with Tween-80): 108 % of control
- T/C (endpoint: mean survival time, dose: 337.0 mg/kg/injection, schedule: Q01DX001 (ip), vehicle: saline with Tween-80): 172 % of control
- T/C [4]: 156 % of control
- T/C (endpoint: mean survival time, dose: 480.0 mg/kg/injection, schedule: Q01DX001 (oral), vehicle: saline with Tween-80): 101 % of control
- T/C (endpoint: median survival time, dose: 75.0 mg/kg/injection, schedule: Q01DX001 (ip), vehicle: saline): 288 % of control
- T/C (endpoint: median survival time, dose: 150.0 mg/kg/injection, schedule: Q01DX001 (ip), vehicle: saline): 288 % of control
- T/C (endpoint: median survival time, dose: 300.0 mg/kg/injection, schedule: Q01DX001 (ip), vehicle: none): 98 % of control
- T/C (endpoint: median survival time, dose: 300.0 mg/kg/injection, schedule: Q01DX001 (ip), vehicle: saline): 94 % of control

SMILES: O=C(NCCc1c[nH]c2ccccc12)C(=O)NCCc1c[nH]c2ccccc12
- T/C (endpoint: mean survival time, dose: 100.0 mg/kg/injection, schedule: Q04DX003 (ip), vehicle: Klucel (hydroxypropylcellulose) (HPC)): 108 % of control
- T/C (endpoint: mean survival time, dose: 200.0 mg/kg/injection, schedule: Q04DX003 (ip), vehicle: Klucel (hydroxypropylcellulose) (HPC)): 93 % of control
- T/C (endpoint: mean survival time, dose: 400.0 mg/kg/injection, schedule: Q04DX003 (ip), vehicle: Klucel (hydroxypropylcellulose) (HPC)): 93 % of control

SMILES: O=C(NCCc1nc(C(=O)O)cs1)c1ccccc1
- T/C [1]: 98 % of control
- T/C (endpoint: mean survival time, dose: 100.0 mg/kg/injection, schedule: Q01DX009 (ip), vehicle: gum acacia): 99 % of control
- T/C (endpoint: mean survival time, dose: 100.0 mg/kg/injection, schedule: Q04DX003 (ip), vehicle: gum acacia): 103 % of control
- T/C (endpoint: mean survival time, dose: 200.0 mg/kg/injection, schedule: Q01DX001 (ip), vehicle: other): 101 % of control
- T/C (endpoint: mean survival time, dose: 200.0 mg/kg/injection, schedule: Q04DX003 (ip), vehicle: gum acacia): 98 % of control
- T/C (endpoint: mean survival time, dose: 400.0 mg/kg/injection, schedule: Q01DX001 (ip), vehicle: other): 102 % of control
- T/C (endpoint: mean survival time, dose: 400.0 mg/kg/injection, schedule: Q04DX003 (ip), vehicle: gum acacia): 97 % of control

SMILES: c1ccc2c(c1)CCCN2
- T/C [2]: 99 % of control
- T/C [3]: 89 % of control
- T/C [4]: 89 % of control
